Measurements taken from PubChem BioAssay AID179 (DTP/NCI, 2004).
Where “and” joins values, the source holds several entries; their conditions need not be identical. Identical values can stand only once. Calls of active or inactive are those of the source.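 How the source made its calls: active means compounds giving half or more protection of infected cells from virus-caused growth loss, again on retest; inactive means the rest.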

System: CEM cells HIV-1 protection, formazan growth assay
Experiment: NCI AIDS Antiviral Assay
Conditions: for IC50: measured here: growth of uninfected CEM cells
Procedure, shortened: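 Protection of CEM cells against HIV-1 was scored from cell growth (soluble formazan) across five concentrations, with parallel uninfected cells. Lack of protection may reflect toxicity.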

Structure (SMILES)	EC50 [µM]	IC50	outcome
NC1c2c(Br)sc(N3CCCC3)c2C(=O)C1O (stereo not drawn)	> 200	> 200 µM	–
CC1=Nc2nc(Cl)cn2C(=O)C1(Cl)Cl	> 200	33.1 µM	–
O=C(/C=C/c1ccccc1)C[C@@H](O)C[C@@H]1CC=CC(=O)O1	> 200	3.16 µM	–
COc1ccc(NC2=NCCO2)c2c1CCCC2	> 200	77.6 µM	–
CC1(C)CCCC2(C)[C@@H]1CC[C@@]13CC(=O)[C@@](C)(CC[C@@H]21)C3 (stereo partly drawn)	> 91.2	> 91.2 µM	–
CC1=CCC(O)C=CC(C)C(O)C(C)C=C(C)C(=O)c2c(O)c(C)cc3c2C(=O)C(N)=C(NC(=O)/C=C\C=C/C=CC(C)C(O)CC1=O)C3=O (stereo not drawn)	> 182	97.7 µM	–
CC(=O)OC(OC(C)=O)n1cc(C=O)c2ccccc21	> 200	> 200 µM	–
CCCCCCCCCCCCCC(=O)OC1C(C)C2(O)C(C=C(CO)CC3(O)C(O)C(C)=CC32)C2C(C)(C)C12OC(C)=O (stereo not drawn)	–	–	active
CC(=O)N(CCCCNC(=O)C(F)(F)F)CCCNC(=O)C(F)(F)F	> 200	> 200 µM	–
C[N+]1([O-])C2CCC1CC(OC(=O)C(CO)c1ccccc1)C2 (stereo not drawn)	> 200	> 200 µM	–
COC[C@H]1C(=O)NCC(=O)N2N=CCC[C@H]2C(=O)N(O)[C@H](C)C(=O)O[C@@H](C(C)C)[C@H](NC(=O)[C@@](C)(O)[C@]2(O)CC[C@@H](CC(C)C)[C@H](C)O2)C(=O)N2NCCC[C@@H]2C(=O)N1O	> 0.151	0.0417 µM	–
CCO[C@]12C[C@H](OC)[C@@]3(O)CC(C1[C@H]3OCc1ccccc1)C13C4C2[C@H](OC)C1[C@](COC)(CN4CC)[C@H](O)C[C@@H]3OC (stereo partly drawn)	17	117 µM	–
O=C1CSC(c2cccc([N+](=O)[O-])c2)N1c1ccc(-n2c(-c3ccccc3)nc3ccccc3c2=O)cc1 (stereo not drawn)	> 200	> 200 µM	–
CCSCCCCCCCCCCC(=O)O	> 200	63.1 µM	–
O=C1/C(=C/c2ccccc2)CCC/C1=C\c1ccccc1	> 200	8.13 µM	–
CC(C)(C1=NC(C(C)(C)C)CO1)C1=N[C@@H](C(C)(C)C)CO1 (stereo partly drawn)	> 251	> 251 µM	–
CN1CCN(c2ncc3c(n2)sc2c(=O)n(-c4ccccc4)cnc23)CC1	> 200	> 200 µM	–
O=C(Sc1c(-c2ccccc2)c(=O)n(-c2ccccc2)c(=S)n1-c1ccccc1)c1cccs1	> 200	21.9 µM	–
CCOC(=O)c1cc2c(OCc3ccccc3)c(OC)cc3c2c(n1)N(c1ccc(OC)cc1)C(C)C3 (stereo not drawn)	> 10.5	> 10.5 µM	–
CCOC(=O)C(CCCCS(=O)(=O)O)C(=O)OCC	> 200	> 200 µM	–
OC(C#CCN1CCCC1)(c1ccccc1)c1ccccc1Cl.[C-]#[O+].[C-]#[O+].[C-]#[O+].[C-]#[O+].[C-]#[O+].[C-]#[O+].[Co].[Co] (stereo not drawn)	> 200	5.25 µM	–

Structure (SMILES)	EC50 [µM]	IC50	outcome
N[C@@H](Cc1ccccc1)C(=O)N1CCC[C@@H]1P(=O)(Oc1ccccc1)Oc1ccccc1	–	–	inactive
CCc1n[nH]c(=O)n1CC	> 200	> 200 µM	–
O=C1C2Cc3ccccc3CN2C(=O)N1CN1CCN(CN2C(=O)C3Cc4ccccc4CN3C2=O)CC1 (stereo not drawn)	> 10	> 10 µM	–
COc1ccc([C@@H]2CC(=O)NCCCNCCCCNCCCN2)cc1	> 200	123 µM	–
Cc1c(C(=N)C(C#N)C#N)c(=N)oc2c1ccc1ccccc12	> 200	26.9 µM	–
O=c1c2ccccc2nc(N/N=C/c2ccc(Cl)cc2)n1-c1ccccc1	> 200	> 200 µM	–
CCN(CCO)c1ccc(N=O)cc1	> 200	11.5 µM	–
C[C@]12CC/C(=N/O)C(O)=C1CC[C@@H]1C2CC[C@]2(C)NC(=O)CCC12 (stereo partly drawn)	> 282	132 µM	–
CN1CCN(C2=NCCO2)CC1	> 200	> 200 µM	–
COc1ccccc1NC(=O)/C(C=NC(=S)C(N)=S)=C(\C)O	–	–	inactive
COc1cccc(NC(=O)/C(Cc2nc3ccccc3nc2C)=N/NC(=O)C[n+]2ccccc2)c1	> 95.5	> 95.5 µM	–
ClC(Cl)(Cl)SSC(=Nc1ccccc1)SSC(Cl)(Cl)Cl	> 200	4.79 µM	–
Cc1cc(C)c(C(=O)OC(c2ccccc2)C(c2ccccc2)N2CCOCC2)c(C)c1 (stereo not drawn)	–	–	inactive
COc1ccc2c(=O)c(-c3ccccc3)c(C)oc2c1	> 200	75.9 µM	–
CN1C(=O)C2(C)SSC1(C)C(=O)N2C	> 200	12 µM	–
O=C(OCc1ccccc1C1CSCSC1)c1cc(C(=O)OCc2ccccc2C2CSCSC2)c(C(=O)OCc2ccccc2C2CSCSC2)cc1C(=O)OCc1ccccc1C1CSCSC1	> 1.82	> 1.82 µM	–
COc1ccc(C(C)=C(C#N)C#N)cc1	> 182	> 182 µM	–
O=[N+]([O-])c1ccc2c(c1)c1nn2CCCCOc2nn(c3ccc([N+](=O)[O-])cc23)CCCCO1	> 200	> 200 µM	–
O=c1c2nn3c(=O)n(-c4ccc(Cl)cc4)c(=O)c3nn2c(=O)n1-c1ccc(Cl)cc1	> 200	> 200 µM	–
CCSc1[nH]c(Nc2nc(-c3ccccc3)n(-c3ccccc3)n2)c(C(N)=O)c1C(N)=O	–	–	inactive
O=C(OCCO)c1c(Cl)c(Cl)c(Cl)c(Cl)c1-c1c2cc(Br)c(=O)c(Br)c-2oc2c(Br)c(O)c(Br)cc12	> 61.7	20.9 µM	–

Structure (SMILES)	EC50 [µM]	IC50	outcome
COc1cc(N=CN(C)C)c2ncccc2c1	–	–	inactive
CNc1ccc(C)cc1S(=O)(=O)c1ccc(OC)cc1	> 200	95.5 µM	–
COC(=O)/C(=N\NC(=S)NN)C(C(=O)C(=O)Nc1ccccc1C(N)=O)c1nc2ccccc2[nH]c1=O (stereo not drawn)	> 347	> 347 µM	–
CN(C)CC[N+]1=Nc2cccc3cccc(c23)N1	–	–	inactive
C=CC1(c2ccc(-c3ccccc3)cc2)OCCO1	> 200	81.3 µM	–
CCCCCCCCC1=C(OC)C(=O)c2c(C)cc(Cl)nc2C1=O	–	–	inactive
CN(C)CCC(=O)N1C/C(=C/c2ccccc2)C(=O)/C(=C\c2ccccc2)C1	> 17.4	0.339 µM	–
COc1ccc2c(c1)-c1c(c3cc(OC)ccc3n1CCN1CCOCC1)CC2	–	–	inactive
COC(=O)C1=NC(=S)N=C(C(=O)OC)C12Cc1ccccc1C2=O	> 724	214 µM	–
Oc1cc(OCCCc2ccc(F)cc2)cc2ccc3ccccc3c12	> 55	31.6 µM	–
CC1=Nc2c(C#N)ncn2N=C(C)C1	> 200	> 200 µM	–
CCC/C(=N/NC(=O)C(N)=O)C(CC)C(=O)CCC(=O)N(Cc1ccccc1)Cc1ccccc1 (stereo not drawn)	> 525	> 525 µM	–
COc1cccc(CCCNC(=O)Cc2cc(OC)c(OC)cc2CO)c1	> 200	14.5 µM	–
CCCCCCCC[N+](C)(C)Cc1ccc(C[N+](C)(C)CCCCCCCC)cc1	–	–	inactive
COc1ccc(OCc2ccc3nc(-c4ccccc4)c(Cl)nc3c2)cc1	> 200	20.4 µM	–
NC1=CN(Cc2ccccc2)C2=N/C(=C\c3ccccc3)C(=O)N12	> 200	77.6 µM	–
CCOC(=N)n1c(=O)n(C2=NCCN2)c2ccccc21	> 200	123 µM	–
CCOC(=O)/C=C/c1cccc(C#N)c1	> 178	87.1 µM	–
CCOC(=O)c1cn(Cc2ccccc2)c(=O)n1Cc1ccccc1	> 107	60.3 µM	–
CCO[C@]12C[C@H](OC)[C@@]3(O)CC(C1[C@H]3O)C13C4C2[C@H](OC)C1[C@](COC)(CN4CC)[C@H](O)C[C@@H]3OC (stereo partly drawn)	> 200	1.58 µM	–
C/C(O)=C(\C=N\C(N)=S)C(=O)Nc1ccccc1	> 200	> 200 µM	–

Structure (SMILES)	EC50 [µM]	IC50	outcome
COCCCNC(=O)CC(=O)NCCCOC	> 1000	> 1000 µM	–
CC1=C2CC[C@]2(C)[C@]23OCC(C)(CC2C1=O)C3O (stereo partly drawn)	–	–	inactive
O=C(/C(=C/c1ccc(Br)cc1)c1ccccc1)c1ccccc1	> 14.5	> 14.5 µM	–
S=c1cc(-c2ccccc2)ss1	> 200	38 µM and > 200 µM	–
O=C1OC(CC(=O)c2ccc(Cl)cc2Cl)C(Cl)=C1Cl (stereo not drawn)	> 148	53.7 µM	–
OC1(c2ccc(Cl)cc2)c2ccccc2C2=NCc3ccccc3CN21 (stereo not drawn)	> 200	33.1 µM	–
COC(=O)CNC(=O)CCSc1nnc(COc2ccc(Cl)cc2)n1-c1ccccc1	> 200	33.9 µM	–
C#Cc1cccc(N2C(=O)c3c(c(-c4ccccc4)c(-c4ccc(Cc5ccc(-c6c(-c7ccccc7)c7c(c(-c8ccccc8)c6-c6ccccc6)C(=O)N(c6cccc(C#C)c6)C7=O)cc5)cc4)c(-c4ccccc4)c3-c3ccccc3)C2=O)c1	> 23.4	> 23.4 µM	–
COc1ccccc1NC(=O)C(=O)Cc1cnc2ccccc2n1	> 209	138 µM	–
CC(C)CCCC(C)[C@H]1CC[C@H]2[C@@H]3CC[C@H]4C[C@@H](CCC=C(c5cc(Cl)c(OC(=O)C(C)C)c(C(=O)O)c5)c5cc(Cl)c(OC(=O)C(C)C)c(C(=O)O)c5)CC[C@]4(C)[C@H]3CC[C@]12C (stereo partly drawn)	105	126 µM	–
CC(C)SC(NC(=O)C1C(C)(C)CCC1(C)C)C(=O)O (stereo not drawn)	> 200	> 200 µM	–
CC(C)(C)c1ccn[nH]1.CC(C)(C)c1ccn[nH]1.[Cl-].[Cl-].[O]=[V][O-]	> 200	35.5 µM	–
CSC(=S)N/N=C/c1nccc2ccccc12	–	–	inactive
CC1(Br)Cc2ccccc2C1=O (stereo not drawn)	–	–	inactive
CN1C(=O)C(N=Nc2ccc([N+](=O)[O-])cc2)SC1=S (stereo not drawn)	> 100	10.7 µM and > 12.6 µM	–
COc1ccc(-c2c(C#N)c(S)n(C3OC(COC(C)=O)C(OC(C)=O)C(OC(C)=O)C3OC(C)=O)c(=O)c2C#N)cc1 (stereo not drawn)	> 200	> 200 µM	–
CSc1cc(SC)ncn1	> 1450	1020 µM	–
O=S(=O)(c1ccccc1)C1CC(c2nc3ccccc3[nH]2)=NO1 (stereo not drawn)	> 200	132 µM	–
O=C(O)CC1SC2(C(=O)N(Cc3ccccc3)c3ccccc32)N(c2ccccc2)C1=O (stereo not drawn)	> 200	> 100 µM	–
COC(=O)C(=O)/C(=C\N1C(=O)CC(=O)NC1=S)C(=O)c1ccc([N+](=O)[O-])cc1	> 200	> 200 µM	–
